ChEMBL document CHEMBL1201862, “PubChem BioAssay data set” (2004)
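Where inhibition never reached the appropriate level, the endpoint shown equals the highest concentration tested. Otherwise, values were interpolated linearly from a five-concentration, 48-hour dose response in 96-well plates. GI50 = concentration required for 50% inhibition of growth.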 Activity calls are given as the source filed them. No stated cut-off is given here; in the data, active = GI50 up to about 1.1 µM and inactive = higher.

Assays:
Assay in all cases: growth of human tumour cells (NCI), 48 h
[1] = system: A549
[2] = system: RXF 393
[3] = system: CAKI-1
[4] = system: NCI-H460
[5] = system: NCI-H23
[6] = system: Malme-3M
[7] = system: UACC-62
[8] = system: OVCAR-4
[9] = system: HCT-116
[10] = system: K562
[11] = system: SK-MEL-2
[12] = system: KM12
[13] = system: HT-29
[14] = system: CCRF-CEM
[15] = system: SF-268
[16] = system: EKVX
[17] = system: HCC 2998

Measured: GI50

C=C(Br)C(C)(Cl)CCC(Br)C(C)(C)Br (stereo not given)
inactive: [1] 40.9 µM | [2] 22.4 µM | [3] > 100 µM | [4] 47.5 µM | [5] 72.8 µM | [6] 69 µM | [7] 47.6 µM | [8] > 100 µM | [9] 31.9 µM | [10] 27.4 µM | [11] 29.2 µM | [12] 99.1 µM | [13] 47.2 µM | [14] 22.5 µM

CC(=O)O/N=C/c1ncccc1CO
inactive: [1] > 100 µM | [2] > 100 µM | [3] > 100 µM | [4] > 100 µM | [5] > 100 µM | [6] > 100 µM | [7] > 100 µM | [8] > 100 µM | [15] > 100 µM | [9] > 100 µM | [10] > 100 µM | [16] > 100 µM | [11] > 100 µM | [12] > 100 µM | [13] > 100 µM | [14] > 100 µM

CCOC(=N)/C(=C1\OC(=N)C(c2ccc(Cl)cc2)=C1O)c1ccc(Cl)cc1
inactive: [1] 23.4 µM | [17] 18.1 µM | [2] 13.8 µM | [3] 23.2 µM | [4] 21.6 µM | [5] 15.3 µM | [6] 14.3 µM | [7] 15.5 µM | [8] 11.8 µM | [15] 14.5 µM | [9] 16.9 µM | [10] 19.8 µM | [16] 18.1 µM | [12] 18.4 µM | [13] 23.2 µM | [14] 18.2 µM

O=C(Nc1c(O)[nH]c(=S)[nH]c1=O)c1ccco1
inactive: [1] > 100 µM | [3] > 100 µM | [4] > 100 µM | [5] > 100 µM | [6] > 100 µM | [7] > 100 µM | [8] > 100 µM | [15] > 100 µM | [9] > 100 µM | [10] > 100 µM | [11] > 100 µM | [12] > 100 µM | [13] > 100 µM | [14] > 100 µM

COc1cc(C(C)O)c[n+](CCC2CNc3ccccc32)c1 (stereo not given)
inactive: [1] > 100 µM | [17] > 100 µM | [3] > 100 µM | [4] > 100 µM | [5] > 100 µM | [6] > 100 µM | [7] > 100 µM | [8] > 100 µM | [15] 27 µM | [9] > 100 µM | [10] > 100 µM | [16] 33 µM | [11] > 100 µM | [12] > 100 µM | [13] 71.6 µM | [14] > 100 µM

Cc1ccc(S(=O)(=O)OCC23CCC(C2)C2CC23)cc1 (stereo not given)
inactive: [1] > 100 µM | [17] > 100 µM | [3] > 100 µM | [4] > 100 µM | [5] > 100 µM | [6] > 100 µM | [7] > 100 µM | [8] > 100 µM | [15] > 100 µM | [9] > 100 µM | [10] > 100 µM | [13] > 100 µM | [14] > 100 µM

Cc1ccc(NC(=O)CCc2nc(N)nc(N)c2-c2ccccc2)cc1C
inactive: [1] > 100 µM | [17] > 100 µM | [3] > 100 µM | [4] > 100 µM | [5] > 100 µM | [6] > 100 µM | [7] > 100 µM | [8] > 100 µM | [15] > 100 µM | [9] > 100 µM | [10] > 100 µM | [16] > 100 µM | [11] > 100 µM | [12] > 100 µM | [13] > 100 µM | [14] > 100 µM

CC1(C)OC2CC3COC(=O)C3CC2O1 (stereo not given)
inactive: [1] > 100 µM | [17] > 100 µM | [3] > 100 µM | [4] > 100 µM | [5] > 100 µM | [6] > 100 µM | [7] > 100 µM | [8] > 100 µM | [15] > 100 µM | [9] > 100 µM | [10] > 100 µM | [16] > 100 µM | [11] > 100 µM | [12] > 100 µM | [13] > 100 µM | [14] > 100 µM

Nc1ncnc2c1ncn2[C@]1(CO)C=C(CO)C(O)C1O (stereo not given in full)
inactive: [1] > 100 µM | [17] > 100 µM | [2] > 100 µM | [3] > 100 µM | [4] > 100 µM | [5] > 100 µM | [6] > 100 µM | [8] > 100 µM | [15] > 100 µM | [9] 73.1 µM | [11] > 100 µM | [12] > 100 µM | [13] > 100 µM

Nc1nc2c3c(ncn3CC(O)CO2)n1 (stereo not given)
inactive: [1] > 100 µM | [17] > 100 µM | [2] > 100 µM | [3] > 100 µM | [4] > 100 µM | [5] > 100 µM | [6] > 100 µM | [7] > 100 µM | [8] > 100 µM | [15] > 100 µM | [9] > 100 µM | [10] > 100 µM | [11] > 100 µM | [12] > 100 µM | [13] 7.6 µM | [14] > 100 µM
